Test results published in patent US10898486B2, “Crystal form of orexin receptor antagonist compound, and preparation method and application thereof” (Shanghai Haiyan Pharmaceutical Technology Co., Ltd., priority 2015, dated 2021).
Converted amounts (≈) assume the structure as drawn. Values belong to the compound of their own block, whether it stands above or below them.

Legend:
hOX1R = molecular target: T1, hOX1R (Homo sapiens, UniProt O43613); test: In vitro test of OX1R: calcium signal change in HEK293-OX1 cells detected with FLIPR; assay type: cell-based
T1 construct: expressed in transfected cells
T1 sequence (O43613 1-425): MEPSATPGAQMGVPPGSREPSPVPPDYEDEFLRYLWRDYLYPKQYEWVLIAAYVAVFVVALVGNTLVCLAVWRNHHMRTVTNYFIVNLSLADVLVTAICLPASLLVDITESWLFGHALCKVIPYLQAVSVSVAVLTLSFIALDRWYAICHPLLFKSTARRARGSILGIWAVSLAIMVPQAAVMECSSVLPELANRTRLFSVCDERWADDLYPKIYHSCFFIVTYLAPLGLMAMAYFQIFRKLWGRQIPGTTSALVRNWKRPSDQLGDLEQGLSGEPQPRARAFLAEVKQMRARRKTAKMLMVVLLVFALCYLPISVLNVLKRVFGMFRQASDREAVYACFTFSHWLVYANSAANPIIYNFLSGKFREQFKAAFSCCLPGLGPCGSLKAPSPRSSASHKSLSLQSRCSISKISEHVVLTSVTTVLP

hOX2R = molecular target: T2, hOX2R (Homo sapiens, UniProt O43614); test: In vitro test of OX2R: calcium signal change in HEK293-OX2 cells detected with FLIPR; assay type: cell-based
T2 construct: expressed in transfected cells
T2 sequence (O43614 1-444): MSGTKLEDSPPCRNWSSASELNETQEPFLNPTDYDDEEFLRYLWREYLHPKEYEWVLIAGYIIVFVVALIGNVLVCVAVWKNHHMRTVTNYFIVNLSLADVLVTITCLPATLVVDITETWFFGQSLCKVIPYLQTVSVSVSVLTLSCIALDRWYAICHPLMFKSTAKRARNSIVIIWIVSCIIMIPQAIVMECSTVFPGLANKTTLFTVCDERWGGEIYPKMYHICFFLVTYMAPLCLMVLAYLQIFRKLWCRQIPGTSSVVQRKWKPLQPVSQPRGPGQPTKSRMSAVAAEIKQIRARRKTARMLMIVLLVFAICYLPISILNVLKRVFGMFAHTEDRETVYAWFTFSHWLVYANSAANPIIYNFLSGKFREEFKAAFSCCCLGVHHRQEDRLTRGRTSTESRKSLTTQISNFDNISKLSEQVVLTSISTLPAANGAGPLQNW

[1] = Solubility of crystal form II in different aqueous media (37° C., 24 hours, HPLC); assay type: physicochemical; settings: for Appearance: 10 mg in 1 mL
[2] = Solubility of crystal form I in different solvents (visual, room temperature); assay type: physicochemical
Method: Solubility Study of crystal form I of compound 5-3:1-1.5 mg of crystal form I of compound 5-3 was added to a flask at room temperature, a single organic solvent or a mixed solvent was added in small quantities and many times until the visual solution was clear or no solid particles were present, determined the solubility of crystal form I in different solvents, the results were shown in Table 2.

[3] = Simulated fasting intestinal fluid
[4] = Simulated postprandial intestinal fluid

IC50 (hOX1R): < 50 nM
IC50 (hOX2R): < 50 nM
SMILES: Cc1ccc(-c2ncccn2)c(C(=O)N2C3CCC2[C@@H](COc2ccc(F)cn2)CC3)c1 (stereo partly drawn) [Compound 5-3]

Crystal form of residual solid ([1]; 0.1N HCl): crystal form II
Final pH ([1]; 0.1N HCl): 0.80
Solubility (descriptive) ([1]; 0.1N HCl): Slightly soluble
Appearance ([1]; 0.1N HCl): turbid
Crystal form of residual solid ([1]; Simulate gastric fluid): crystal form II
Final pH ([1]; Simulate gastric fluid): 1.88
Solubility (descriptive) ([1]; Simulate gastric fluid): Slightly soluble
Appearance ([1]; Simulate gastric fluid): turbid
Crystal form of residual solid [1, 3]: crystal form II
Final pH [1, 3]: 6.65
Solubility (descriptive) [1, 3]: Slightly soluble
Appearance [1, 3]: turbid
Crystal form of residual solid [1, 4]: crystal form II
Final pH [1, 4]: 5.04
Solubility (descriptive) [1, 4]: Slightly soluble
Appearance [1, 4]: turbid
solubility at 24 h ([1]; pH 0.8, simulated gastric fluid, thermodynamic from solid, 0.1N HCl): 0.42 mg/mL (≈ 0.971 mM)
solubility at 24 h ([1]; pH 1.88, simulated gastric fluid, thermodynamic from solid, Simulate gastric fluid): 0.27 mg/mL (≈ 0.624 mM)
solubility at 24 h ([1]; pH 5.04, fessif, thermodynamic from solid, Simulated postprandial intestinal fluid): 0.29 mg/mL (≈ 0.671 mM)
solubility at 24 h ([1]; pH 6.65, fassif, thermodynamic from solid, Simulated fasting intestinal fluid): 0.18 mg/mL (≈ 0.416 mM)
solubility at 24 h ([1]; pH 7.95, thermodynamic from solid, water): 0.14 mg/mL (≈ 0.324 mM)
Crystal form of residual solid ([1]; water): crystal form II
Final pH ([1]; water): 7.95
Solubility (descriptive) ([1]; water): Slightly soluble
Appearance ([1]; water): turbid
SMILES: Cc1ccc(-c2ncccn2)c(C(=O)N2C3CCC2[C@@H](COc2ccc(F)cn2)CC3)c1 (stereo partly drawn) [crystal form II]

solubility ([2]; organic solvent or mixture, thermodynamic from solid, 1,4-dioxane): > 57 mg/mL
solubility ([2]; organic solvent or mixture, thermodynamic from solid, ACN): 20 to 50 mg/mL (≈ 46.2 to 116 mM)
solubility ([2]; organic solvent or mixture, thermodynamic from solid, Acetone): > 52 mg/mL
solubility ([2]; organic solvent or mixture, thermodynamic from solid, EtOAc): 19 to 48 mg/mL (≈ 43.9 to 111 mM)
solubility ([2]; organic solvent or mixture, thermodynamic from solid, EtOH): 22 to 55 mg/mL (≈ 50.9 to 127 mM)
solubility ([2]; organic solvent or mixture, thermodynamic from solid, IPA): 10 to 20 mg/mL (≈ 23.1 to 46.2 mM)
solubility ([2]; organic solvent or mixture, thermodynamic from solid, MEK): > 54 mg/mL
solubility ([2]; organic solvent or mixture, thermodynamic from solid, MIBK): 24 to 60 mg/mL (≈ 55.5 to 139 mM)
solubility ([2]; organic solvent or mixture, thermodynamic from solid, MTBE): < 1 mg/mL
solubility ([2]; organic solvent or mixture, thermodynamic from solid, MeOH): > 53 mg/mL
solubility ([2]; organic solvent or mixture, thermodynamic from solid, MeOH—H2O (3:1)): 18 to 46 mg/mL (≈ 41.6 to 106 mM)
solubility ([2]; organic solvent or mixture, thermodynamic from solid, THF): > 53 mg/mL
solubility ([2]; organic solvent or mixture, thermodynamic from solid, Toluene): > 54 mg/mL
solubility ([2]; organic solvent or mixture, thermodynamic from solid, n-butanol): 22 to 55 mg/mL (≈ 50.9 to 127 mM)
solubility ([2]; thermodynamic from solid, water): < 1 mg/mL
SMILES: Cc1ccc(-c2ncccn2)c(C(=O)N2C3CCC2[C@@H](COc2ccc(F)cn2)CC3)c1 (stereo partly drawn) [crystal form I]
